Legend:
Test in all cases: relative viability (nuclei count vs DMSO), 5 days (fraction); higher = more cells survive
[1] = system: NCI-H322M
Summary of the method: (§1)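 A single step with final 0.05% Triton X-100, 1% formaldehyde and 1 ug/ml Hoechst fixed the cells and stained nuclei 5 days after treatment. Lung cancer cell lines in 1536-well plates had been treated by pin tool the day after seeding with one drug alone or a fixed anchor-drug dose plus five library-drug doses (not always all listed) in √10 steps, and nuclei were counted on 4× images. Relative viability is the ratio of nuclei in treated wells to nuclei in vehicle wells, taken as the median of duplicate plates.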

[2] = system: NCI-H2347
Summary of the method: as §1

[3] = system: NCI-H727
Summary of the method: as §1

[4] = system: NCI-H2085
Summary of the method: as §1

[5] = system: NCI-H647
Summary of the method: as §1

[6] = system: NCI-H2009
Summary of the method: as §1

[7] = system: NCI-H1650
Summary of the method: as §1

[8] = system: NCI-H2126
Summary of the method: as §1

[9] = system: NCI-H1993
Summary of the method: as §1

[10] = system: SW 1573
Summary of the method: as §1

[11] = system: NCI-H661
Summary of the method: as §1

[12] = system: SK-LU-1
Summary of the method: as §1

[13] = system: NCI-H1915
Summary of the method: as §1

[14] = system: HOP-62
Summary of the method: as §1

[15] = system: NCI-H2023
Summary of the method: as §1

[16] = system: EMC-BAC-2
Summary of the method: as §1

[17] = system: NCI-H2342
Summary of the method: as §1

[18] = system: PC-14
Summary of the method: as §1

[19] = system: LCLC-97TM1
Summary of the method: as §1

[20] = system: LXF-289
Summary of the method: as §1

[21] = system: H3255
Summary of the method: as §1

[22] = system: EPLC-272H
Summary of the method: as §1

Structure (SMILES): O=C(O)c1ccc(-c2c[nH]c3ncc(-c4ccccc4)cc23)cc1C1CCCC1 + O=C(c1cc(Cc2n[nH]c(=O)c3ccccc23)ccc1F)N1CCN(C(=O)C2CC2)CC1 [Olaparib] (partner 8 µM)
- relative viability ([1]; first compound 0.04 µM): 0.856
- relative viability ([1]; first compound 0.1265 µM): 0.718
- relative viability ([1]; first compound 0.4 µM): 0.661
- relative viability ([1]; first compound 1.265 µM): 0.554
- relative viability ([2]; first compound 0.04 µM): 0.593
- relative viability ([2]; first compound 0.1265 µM): 0.608
- relative viability ([2]; first compound 0.4 µM): 0.54
- relative viability ([2]; first compound 1.265 µM): 0.51
- relative viability ([3]; first compound 0.04 µM): 0.629
- relative viability ([3]; first compound 0.1265 µM): 0.713
- relative viability ([3]; first compound 0.4 µM): 0.633
- relative viability ([3]; first compound 1.265 µM): 0.563
- relative viability ([4]; first compound 0.04 µM): 0.74
- relative viability ([4]; first compound 0.1265 µM): 0.793
- relative viability ([4]; first compound 0.4 µM): 0.746
- relative viability ([4]; first compound 1.265 µM): 0.474
- relative viability ([5]; first compound 0.04 µM): 0.5
- relative viability ([5]; first compound 0.1265 µM): 0.619
- relative viability ([5]; first compound 0.4 µM): 0.494
- relative viability ([5]; first compound 1.265 µM): 0.322
- relative viability ([6]; first compound 0.04 µM): 0.679
- relative viability ([6]; first compound 0.1265 µM): 0.708
- relative viability ([6]; first compound 0.4 µM): 0.653
- relative viability ([6]; first compound 1.265 µM): 0.568
- relative viability ([7]; first compound 0.04 µM): 0.735
- relative viability ([7]; first compound 0.1265 µM): 0.815
- relative viability ([7]; first compound 0.4 µM): 0.65
- relative viability ([7]; first compound 1.265 µM): 0.606
- relative viability ([8]; first compound 0.04 µM): 0.884
- relative viability ([8]; first compound 0.1265 µM): 0.861
- relative viability ([8]; first compound 0.4 µM): 0.853
- relative viability ([8]; first compound 1.265 µM): 0.64
- relative viability ([9]; first compound 0.04 µM): 0.902
- relative viability ([9]; first compound 0.1265 µM): 1.19
- relative viability ([9]; first compound 0.4 µM): 1.04
- relative viability ([9]; first compound 1.265 µM): 0.974
- relative viability ([10]; first compound 0.04 µM): 0.527
- relative viability ([10]; first compound 0.1265 µM): 0.528
- relative viability ([10]; first compound 0.4 µM): 0.427
- relative viability ([10]; first compound 1.265 µM): 0.341
- relative viability ([11]; first compound 0.04 µM): 0.698
- relative viability ([11]; first compound 0.1265 µM): 0.772
- relative viability ([11]; first compound 0.4 µM): 0.744
- relative viability ([11]; first compound 1.265 µM): 0.656
- relative viability ([12]; first compound 0.04 µM): 0.457
- relative viability ([12]; first compound 0.1265 µM): 0.459
- relative viability ([12]; first compound 0.4 µM): 0.512
- relative viability ([12]; first compound 1.265 µM): 0.318
- relative viability ([13]; first compound 0.04 µM): 0.266
- relative viability ([13]; first compound 0.1265 µM): 0.25
- relative viability ([13]; first compound 0.4 µM): 0.226
- relative viability ([13]; first compound 1.265 µM): 0.203
- relative viability ([14]; first compound 0.04 µM): 0.352
- relative viability ([14]; first compound 0.1265 µM): 0.448
- relative viability ([14]; first compound 0.4 µM): 0.356
- relative viability ([14]; first compound 1.265 µM): 0.382
- relative viability ([15]; first compound 0.04 µM): 0.475
- relative viability ([15]; first compound 0.1265 µM): 0.485
- relative viability ([15]; first compound 0.4 µM): 0.408
- relative viability ([15]; first compound 1.265 µM): 0.238
- relative viability ([16]; first compound 0.04 µM): 0.453
- relative viability ([16]; first compound 0.1265 µM): 0.506
- relative viability ([16]; first compound 0.4 µM): 0.429
- relative viability ([16]; first compound 1.265 µM): 0.368
- relative viability ([17]; first compound 0.04 µM): 0.456
- relative viability ([17]; first compound 0.1265 µM): 0.445
- relative viability ([17]; first compound 0.4 µM): 0.501
- relative viability ([17]; first compound 1.265 µM): 0.446
- relative viability ([18]; first compound 0.04 µM): 0.234
- relative viability ([18]; first compound 0.1265 µM): 0.263
- relative viability ([18]; first compound 0.4 µM): 0.268
- relative viability ([18]; first compound 1.265 µM): 0.243
- relative viability ([19]; first compound 0.04 µM): 0.435
- relative viability ([19]; first compound 0.1265 µM): 0.54
- relative viability ([19]; first compound 0.4 µM): 0.396
- relative viability ([19]; first compound 1.265 µM): 0.258
- relative viability ([20]; first compound 0.04 µM): 1.07
- relative viability ([20]; first compound 0.1265 µM): 0.935
- relative viability ([20]; first compound 0.4 µM): 0.709
- relative viability ([20]; first compound 1.265 µM): 0.507
- relative viability ([21]; first compound 0.04 µM): 0.574
- relative viability ([21]; first compound 0.1265 µM): 0.57
- relative viability ([21]; first compound 0.4 µM): 0.514
- relative viability ([21]; first compound 1.265 µM): 0.507
- relative viability ([22]; first compound 0.04 µM): 0.924
- relative viability ([22]; first compound 0.1265 µM): 1.05
- relative viability ([22]; first compound 0.4 µM): 0.566
- relative viability ([22]; first compound 1.265 µM): 0.257

Source: the supplement of paper PMC10307832
